Patent US6908919B2, “Substituted polycyclic aryl and heteroaryl pyrazinones useful for selective inhibition of the coagulation cascade” (Pharmacia Corporation, priority 1999, dated 2005)
pIC50: −log10 of the molar value. Read-outs that look alike come from different tables or passages of the source.

What was measured:
Human factor Xa = Human factor Xa (Homo sapiens, UniProt P00742); assay: Xa Assay; type: biochemical; design: purchased Enzyme Research Laboratories, South Bend Ind; conditions: for % Inhibition Factor Xa (30 µM): at 30 µM inhibitor; for inhibition at 100 µM: at 100 μM inhibitor
Sequence of Human factor Xa (P00742 41-179 limits assumed): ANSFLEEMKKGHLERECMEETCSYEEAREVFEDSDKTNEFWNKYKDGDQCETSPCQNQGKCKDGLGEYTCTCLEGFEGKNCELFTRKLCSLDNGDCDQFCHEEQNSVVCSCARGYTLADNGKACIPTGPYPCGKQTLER
Sequence of Human factor Xa (P00742 235-488 limits assumed): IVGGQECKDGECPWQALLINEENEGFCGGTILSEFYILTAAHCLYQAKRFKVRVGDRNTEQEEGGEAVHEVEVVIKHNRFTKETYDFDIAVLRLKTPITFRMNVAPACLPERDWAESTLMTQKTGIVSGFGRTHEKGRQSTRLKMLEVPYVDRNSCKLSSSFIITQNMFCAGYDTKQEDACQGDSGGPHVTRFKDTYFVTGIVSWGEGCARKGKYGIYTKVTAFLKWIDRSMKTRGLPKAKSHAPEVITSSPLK

[1] = biological target: T1, recombinant soluble tissue factor and recombinant human factor VIIa (TF-VIIa) (Homo sapiens, UniProt P08709); assay: TF-VIIa Assay; type: biochemical; conditions: for % Inhibition TF-VIIa (30 µM): at 30 µM inhibitor; for pIC50: read-out: IC50 TF-VIIa
T1 construct: conversion of coagulation factor VII to VIIa by Xa; purchased American Diagnostica, Greenwich Conn; host or cells: VIIa purchased; soluble TF made in house in E. coli
T1 sequence (P08709 61-212 limits assumed): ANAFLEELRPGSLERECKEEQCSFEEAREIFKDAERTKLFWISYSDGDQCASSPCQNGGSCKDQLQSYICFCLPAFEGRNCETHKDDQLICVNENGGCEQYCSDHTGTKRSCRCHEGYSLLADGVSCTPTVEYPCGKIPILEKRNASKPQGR
T1 sequence (P08709 213-466 limits assumed): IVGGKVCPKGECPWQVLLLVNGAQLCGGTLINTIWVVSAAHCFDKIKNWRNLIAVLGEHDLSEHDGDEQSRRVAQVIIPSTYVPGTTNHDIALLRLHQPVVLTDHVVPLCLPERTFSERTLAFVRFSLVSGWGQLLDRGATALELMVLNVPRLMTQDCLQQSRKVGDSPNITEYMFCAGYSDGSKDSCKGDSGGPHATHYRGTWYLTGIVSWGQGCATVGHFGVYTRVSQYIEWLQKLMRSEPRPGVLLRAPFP
T1 sequence (P13726 33-251 partner limits assumed): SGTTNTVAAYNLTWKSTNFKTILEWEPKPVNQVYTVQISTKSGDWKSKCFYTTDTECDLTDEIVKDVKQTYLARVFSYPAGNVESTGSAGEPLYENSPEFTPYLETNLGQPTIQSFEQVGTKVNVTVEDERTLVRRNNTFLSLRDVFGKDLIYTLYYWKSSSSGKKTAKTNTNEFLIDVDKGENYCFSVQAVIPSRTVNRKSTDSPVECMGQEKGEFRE

## Cc1c(Cl)nc(NCCc2cccnc2)c(=O)n1CC(=O)NCCc1ccncc1 [Example E-0005]
Human factor Xa; inhibitor at 100 µM
  % Inhibition Factor Xa (100 µM): 0%
[1]; inhibitor at 100 µM
  % Inhibition TF-VIIa (100 µM): 0%

## O=C(Cn1c(-c2ccc3c(c2)OCO3)c(Cl)nc(NCCc2cccc(Cl)c2)c1=O)NCCc1ccncc1 [Example E-0043]
Human factor Xa; inhibitor at 100 µM
  % Inhibition Factor Xa (100 µM): 0%
[1]; inhibitor at 100 µM
  % Inhibition TF-VIIa (100 µM): 0%

## O=C(Cn1c(Cc2ccccc2)c(Cl)nc(NCCc2cccnc2)c1=O)NCCc1ccncc1 [Example E-0061]
Human factor Xa; inhibitor at 100 µM
  % Inhibition Factor Xa (100 µM): 0%
[1]; inhibitor at 100 µM
  % Inhibition TF-VIIa (100 µM): 0%

## O=C(Cn1c(-c2ccccc2)c(Cl)nc(NCCc2cccc(Cl)c2)c1=O)NCCc1ccncc1 [Example E-0011]
Human factor Xa; inhibitor at 100 µM
  % Inhibition Factor Xa (100 µM): 0%
[1]; inhibitor at 100 µM
  % Inhibition TF-VIIa (100 µM): 0%

## Nc1cccc(-c2c(Cl)nc(NC3CCC3)c(=O)n2CC(=O)NCCc2ccccc2)c1 [Example 89]
Human factor Xa
  % Inhibition Factor Xa (30 µM): 5% @ 30
[1]
  % Inhibition TF-VIIa (30 µM): 5% @ 30

## O=C(Cn1c(Cc2ccccc2)c(Cl)nc(NCCc2ccccc2)c1=O)NCCc1ccncc1 [Example E-0058]
Human factor Xa; inhibitor at 100 µM
  % Inhibition Factor Xa (100 µM): 0%
[1]; inhibitor at 100 µM
  % Inhibition TF-VIIa (100 µM): 0%

## O=C(Cn1c(-c2ccc(Cl)cc2)c(Cl)nc(NCCN2CCOCC2)c1=O)NCCc1ccncc1 [Example E-0023]
Human factor Xa; inhibitor at 100 µM
  % Inhibition Factor Xa (100 µM): 0%
[1]; inhibitor at 100 µM
  % Inhibition TF-VIIa (100 µM): 0%

## N=C(N)c1ccc(CNC(=O)Cn2c(-c3ccc(Cl)cc3)c(Cl)nc(NCCN3CCOCC3)c2=O)cc1 [1471-20]
Human factor Xa
  % Inhibition Factor Xa (30 µM): 34%
[1]
  % Inhibition TF-VIIa (30 µM): 42%

## O=C(Cn1c(-c2ccc3c(c2)OCO3)c(Cl)nc(NCCc2ccccc2)c1=O)NCCc1ccncc1 [Example E-0042]
Human factor Xa; inhibitor at 100 µM
  % Inhibition Factor Xa (100 µM): 0%
[1]; inhibitor at 100 µM
  % Inhibition TF-VIIa (100 µM): 0%

## O=C(Cn1c(-c2cccc(Cl)c2)c(Cl)nc(NCCc2ccccc2)c1=O)NCCc1ccncc1 [Example E-0076]
Human factor Xa; inhibitor at 100 µM
  % Inhibition Factor Xa (100 µM): 1%
[1]; inhibitor at 100 µM
  % Inhibition TF-VIIa (100 µM): 0%

## COc1ccc(-c2c(Cl)nc(NCCc3ccncc3)c(=O)n2CC(=O)NCCc2ccncc2)cc1 [Example E-0038]
Human factor Xa; inhibitor at 100 µM
  % Inhibition Factor Xa (100 µM): 0%
[1]; inhibitor at 100 µM
  % Inhibition TF-VIIa (100 µM): 0%

## O=C(Cn1c(-c2ccc(Cl)cc2)c(Cl)nc(NCCc2ccc(Cl)cc2)c1=O)NCCc1ccncc1 [Example E-0020]
Human factor Xa; inhibitor at 100 µM
  % Inhibition Factor Xa (100 µM): 1%
[1]; inhibitor at 100 µM
  % Inhibition TF-VIIa (100 µM): 0%

## COc1ccc(-c2c(Cl)nc(NCCc3ccc(Cl)cc3)c(=O)n2CC(=O)NCCc2ccncc2)cc1 [Example E-0036]
Human factor Xa; inhibitor at 100 µM
  % Inhibition Factor Xa (100 µM): 0%
[1]; inhibitor at 100 µM
  % Inhibition TF-VIIa (100 µM): 0%

## N=C(N)c1ccc(C(O)CCCn2c(-c3cccc(N)c3)c(Cl)nc(NC3CCC3)c2=O)cc1 (centres unmarked) [Example 143]
Human factor Xa
  inhibition at 100 µM: 30%
[1]
  pIC50: 4.36

## CC(C)Nc1nc(Cl)c(-c2cc(N)cc(C(=O)N(C)Cc3ccccc3)c2)n(CC(=O)NCc2ccc(C(=N)N)cc2)c1=O [Example 128-2]
Human factor Xa
  inhibition at 100 µM: 41%
[1]
  pIC50: 7.59

## COc1ccc(-c2c(Cl)nc(NCCN3CCOCC3)c(=O)n2CC(=O)NCc2ccc(C(=N)N)cc2)cc1 [1471-36]
Human factor Xa
  % Inhibition Factor Xa (30 µM): 6%
[1]
  % Inhibition TF-VIIa (30 µM): 11%

## O=C(Cn1c(-c2cccc(Cl)c2)c(Cl)nc(NCCc2cccc(Cl)c2)c1=O)NCCc1cccnc1 [Example E-0080]
Human factor Xa; inhibitor at 100 µM
  % Inhibition Factor Xa (100 µM): 4%
[1]; inhibitor at 100 µM
  % Inhibition TF-VIIa (100 µM): 1%

## O=C(Cn1c(-c2ccc(Cl)cc2)c(Cl)nc(NCc2ccccc2)c1=O)NCCc1ccncc1 [Example E-0017]
Human factor Xa; inhibitor at 100 µM
  % Inhibition Factor Xa (100 µM): 0%
[1]; inhibitor at 100 µM
  % Inhibition TF-VIIa (100 µM): 0%

## O=C(Cn1c(-c2ccc(Cl)cc2)c(Cl)nc(NCCc2ccncc2)c1=O)NCCc1ccncc1 [Example E-0030]
Human factor Xa; inhibitor at 100 µM
  % Inhibition Factor Xa (100 µM): 0%
[1]; inhibitor at 100 µM
  % Inhibition TF-VIIa (100 µM): 0%

## O=C(Cn1c(-c2ccccc2)c(Cl)nc(NCCc2ccccc2)c1=O)NCCc1ccncc1 [Example E-0010]
Human factor Xa; inhibitor at 100 µM
  % Inhibition Factor Xa (100 µM): 0%
[1]; inhibitor at 100 µM
  % Inhibition TF-VIIa (100 µM): 0%

## O=C(Cn1c(-c2ccc(-c3ccccc3)cc2)c(Cl)nc(NCCN2CCOCC2)c1=O)NCCc1ccncc1 [Example E-0055]
Human factor Xa
  % Inhibition Factor Xa (100 µM): 0%
[1]
  % Inhibition TF-VIIa (100 µM): 0%

## N=C(N)c1ccc(CNC(=O)Cn2c(-c3ccc(C(=N)N)cc3)c(Cl)nc(NC3CCC3)c2=O)cc1 [Example 113]
Human factor Xa
  pIC50: 4.85
[1]
  pIC50: 5.21

## O=C(Cn1c(-c2ccc(Cl)cc2)c(Cl)nc(NCCc2cccnc2)c1=O)NCCc1ccncc1 [Example E-0029]
Human factor Xa; inhibitor at 100 µM
  % Inhibition Factor Xa (100 µM): 0%
[1]; inhibitor at 100 µM
  % Inhibition TF-VIIa (100 µM): 0%

## COc1ccc(-c2c(Cl)nc(NCc3ccncc3)c(=O)n2CC(=O)NCc2ccc(C(=N)N)cc2)cc1 [1471-35]
Human factor Xa
  % Inhibition Factor Xa (30 µM): 22%
[1]
  % Inhibition TF-VIIa (30 µM): 37%

## O=C(Cn1c(-c2ccc(-c3ccccc3)cc2)c(Cl)nc(NCc2ccncc2)c1=O)NCCc1ccncc1 [Example E-0056]
Human factor Xa
  % Inhibition Factor Xa (100 µM): 0%
[1]
  % Inhibition TF-VIIa (100 µM): 0%

## Cc1c(Cl)nc(NCCc2ccncc2)c(=O)n1CC(=O)NCCc1ccncc1 [Example E-0006]
Human factor Xa; inhibitor at 100 µM
  % Inhibition Factor Xa (100 µM): 0%
[1]; inhibitor at 100 µM
  % Inhibition TF-VIIa (100 µM): 2%

## O=C(Cn1c(CCc2ccccc2)c(Cl)nc(NCCc2ccccc2)c1=O)NCCc1ccncc1 [Example E-0066]
Human factor Xa; inhibitor at 100 µM
  % Inhibition Factor Xa (100 µM): 0%
[1]; inhibitor at 100 µM
  % Inhibition TF-VIIa (100 µM): 0%

## O=C(Cn1c(-c2cccc(Cl)c2)c(Cl)nc(NCCc2ccc(Cl)cc2)c1=O)NCCc1ccncc1 [Example E-0094]
Human factor Xa; inhibitor at 100 µM
  % Inhibition Factor Xa (100 µM): 2%
[1]; inhibitor at 100 µM
  % Inhibition TF-VIIa (100 µM): 2%

## O=C(Cn1c(-c2ccc(-c3ccccc3)cc2)c(Cl)nc(NCCc2ccc(Cl)cc2)c1=O)NCCc1ccncc1 [Example E-0118]
Human factor Xa
  % Inhibition Factor Xa (100 µM): 3%
[1]
  % Inhibition TF-VIIa (100 µM): 12%

## O=C(Cn1c(CCc2ccccc2)c(Cl)nc(NCCc2ccncc2)c1=O)NCCc1ccncc1 [Example E-0070]
Human factor Xa; inhibitor at 100 µM
  % Inhibition Factor Xa (100 µM): 0%
[1]; inhibitor at 100 µM
  % Inhibition TF-VIIa (100 µM): 0%

## O=C(Cn1c(-c2ccc3c(c2)OCO3)c(Cl)nc(NCCc2cccnc2)c1=O)NCCc1ccncc1 [Example E-0045]
Human factor Xa; inhibitor at 100 µM
  % Inhibition Factor Xa (100 µM): 0%
[1]; inhibitor at 100 µM
  % Inhibition TF-VIIa (100 µM): 0%

## COc1ccc(-c2c(Cl)nc(NCc3ccccc3)c(=O)n2CC(=O)NCc2ccc(C(=N)N)cc2)cc1 [1471-33]
Human factor Xa
  % Inhibition Factor Xa (30 µM): 22%
[1]
  % Inhibition TF-VIIa (30 µM): 31%

## O=C(Cn1c(-c2cccc(Cl)c2)c(Cl)nc(NCCc2ccccc2)c1=O)NCCc1cccnc1 [Example E-0077]
Human factor Xa; inhibitor at 100 µM
  % Inhibition Factor Xa (100 µM): 3%
[1]; inhibitor at 100 µM
  % Inhibition TF-VIIa (100 µM): 0%

## O=C(Cn1c(CCc2ccccc2)c(Cl)nc(NCCc2cccc(Cl)c2)c1=O)NCCc1ccncc1 [Example E-0067]
Human factor Xa; inhibitor at 100 µM
  % Inhibition Factor Xa (100 µM): 0%
[1]; inhibitor at 100 µM
  % Inhibition TF-VIIa (100 µM): 0%
